Like-named read-outs stand apart in the source and are kept apart here.
How the values were obtained:
[1] = system: liver; type: in vivo, rat (male, Sprague-Dawley); conditions: 5 mg s.c. once a day
Procedure: (§1) 3β-Hexadecanoyloxy-5α-cholest-8(14)-en-15-one (5 mg; dissolved in 0.25 ml of triolein), hereafter referred to as the "palmitate ester", or 3β-hemisuccinoyloxy-5α-cholest-8(14)-en-15-one (5 mg; suspended in 0.25 ml of triolein through the use of a tight-fitting all-glass homogenizer), hereafter referred to as the "hemisuccinate ester", were administered subcutaneously once a day at about 12 P.M. to each of eight and six rats, respectively. Control animals (8) received daily injections of triolein (0.25 ml).
The mean values of the liver weights of the triolein-treated rats (9.6 g±0.08, S.E.M.). S.E. differed from those of the palmitate ester-treated rats (11.4 g±0.5, S.E.M.). Similarly, the mean value of the liver weights, when expressed as a percentage of the total body weight, of the triolein-treated rats (4.09%±0.08, S.E.M.) differed from the mean value for the palmitate ester-treated rats (4.53%±0.09, S.E.M.).

[2] = system: serum cholesterol; assay: Effect on serum cholesterol levels in rats, daily subcutaneous injection (Examples 41, 42); type: in vivo, rat (male, Sprague-Dawley); conditions: for Serum Cholesterol (Mean ± S.E.M.): 5 mg s.c. once a day in triolein; for % Reduction of serum cholesterol (Mean ± S.E.M.): from initial levels in same rats
Procedure: Male rats of the Sprague-Dawley strain were fed Purina rat chow ad libidum. The rats were maintained on a light (7 A.M.-6 P.M.) -dark (6 P.M.-7 A.M.) cycle throughout the study and for a period of at least 4 days prior to the initiation of the study.
as §1
Blood samples were taken from the rats periodically and the serum cholesterol concentrations measured, in duplicate, by the method of Abell et al., J. Biol. Chem., Vol. 195, pp. 357-366 ([…]).
Following generally the procedure described in Example 41, 3β-Ethoxy-14α-ethyl-5α-cholest-7-en-15-one (5 mg) in triolein (0.25 ml) was administered subcutaneously once a day to each of eight rats. Control animals (8) received daily injections of triolein (0.25 ml).
Similarly, 5α-cholest-8(14)-en-3β-ol-15-one (2mg) in (0.2 ml) olive oil or 5.0 mg in 0.5 ml of olive oil) was administered subcutaneously once a day to each of a group of rats. The 2 mg dose was administered to 12 rats, while a like number of rats received daily injections of 0.2 ml olive oil. 5 mg doses were administered to each of 6 rats, while 6 control animals received daily injections of 0.5 ml olive oil. The rats used in this study initially weighed between 110 and 190 grams.

[3] = type: in vivo, rat (male, Sprague-Dawley)
Procedure: as §1
The average percentage weight gain over the total experimental period in the palmitate, hemisuccinate, and triolein groups were (mean±S.E.M.) 40.5±4.6, 40.7±1.6, and 43.6±3.3, respectively.

[4] = system: sterol biosynthesis in L cells; assay: Inhibition of sterol synthesis from [1-14C]acetate in L cell cultures; type: cell-based; conditions: Mus musculus, read-out: Concentrations Required for 50% Inhibition of Sterol Synthesis
Procedure: (§2) The effect of various 15-oxygenated sterols on sterol biosynthesis in L cells and in primary cultures of mouse liver cells was tested essentially under conditions described in detail previously [A. A. Kandutsch and H. W. Chen, J. Biol. Chem., Vol. 248, pp. 8408-8417 (1973) and A. A. Kandutsch and H. W. Chen, J. Biol. Chem., Vol. 249, pp. 6057-6061 (1974`)].
(§3) The primary liver cell cultures were prepared from 16-day-old (C57BL/6J fetuses and grown in chemically defined medium (serum-free) as described in the above cited publications. The L cells, a subline of NCTC clone 929 mouse fibroblasts, were grown in chemically defined medium (serum-free) as described in the publications. These L cells are transformed fibroblasts which are regarded as malignant since they will grow as tumors if injected into the mouse strain from which they were initially obtained.
(§4) The preparation of steroid-containing media, procedures for assays of the conversion of [1-^14 C]acetate into digitonin-precipitable sterols, fatty acids, and CO2 and methods for the measurement of DNA, protein, and HMG-CoA reductase were as described in the published articles. L cell cultures were preincubated with the 15-oxygenated sterols and their derivatives for 4 hours, then [1-^14 C]acetate was added at a concentration of 4 μmoles per ml (4 μCi per ml); or the L cell cultures were incubated for 5 hours with the 15-oxygenated sterols before they were harvested for determination of microsomal HMG-CoA reductase activity.
(§5) The test compounds were tested over a range of at least 4 concentrations and the assay was repeated until the concentration of test compound required to produce 50% inhibition was located on the steeply declining portion of an activity vs. concentration plot. To diminish any possible effects of generalized differences in cellular metabolism, the rates of sterol synthesis from [1-^14 C]acetate were calculated as the ratio of [^14 C]sterols to [^14 C]fatty acids as described in the two cited articles by Kandutsch and Chen.

[5] = system: sterol biosynthesis in primary cultures of mouse liver cells; assay: Inhibition of sterol synthesis from [1-14C]acetate in primary cultures of liver cells; type: cell-based; conditions: read-out: Concentrations Required for 50% Inhibition of Sterol Synthesis
Procedure: as §2, §3, §4
(§6) Conditions for incubating the 15-oxygenated sterols or their derivatives with liver cell cultures were similar to those described for L cell cultures except that the cultures were incubated with the test compounds for 12 hours before labeled acetate was added or before they were harvested for enzyme assay.
as §5

[6] = system: HMG-CoA reductase; assay: Reduction of the activity of HMG-CoA reductase in primary cultures of liver cells; type: cell-based, mouse; conditions: read-out: Concentrations Required for 50% Reduction of the Activity of HMG-CoA Reductase
Procedure: as §3, §4, §6
(§7) A number of the 15-oxygenated sterols have also been tested with respect to their effects on the activity and/or levels of the enzyme HMG-CoA reductase (3-hydroxy-3-methylglutaryl coenzyme A reductase) in the L cells and in the liver cells. As noted previously, this enzyme catalyzes the reduction of 3-hydroxy-3-methylglutaryl coenzyme A to yield mevalonic acid, an essential intermediate in the biosynthesis of sterols and of a number of other essential compounds in cells.
(§8) Using the technique described by Kandutsch and Chen in the article cited in the previous example, the concentrations of various 15-oxygenated sterols required to reduce the levels of activity of HMG-CoA reductase by 50% was determined in the cells of the L cells in culture and of the primary cultures of liver cells.

[7] = system: HMG-CoA reductase; assay: Reduction of the activity of HMG-CoA reductase in L cell cultures; type: cell-based, mouse; conditions: read-out: Concentrations Required for 50% Reduction of the Activity of HMG-CoA Reductase
Procedure: as §3, §4, §7, §8

[8] = system: sterol biosynthesis in L cells; conditions: L cell cultures; as reported by Kandutsch and Chen; read-out: Concentrations Required for 50% Inhibition of Sterol Synthesis; cited from earlier work
[9] = system: sterol biosynthesis in primary cultures of mouse liver cells; conditions: primary cultures of liver cells, cited from earlier work; for IC50: as reported by Kandutsch and Chen, read-out: Concentrations Required for 50% Inhibition of Sterol Synthesis

SMILES | IC50 [5] | IC50 [6] | IC50 [7] | IC50 [4] | other results
CCCCCCCCCCCCCCCC(=O)O[C@H]1CC[C@@]2(C)[C@@H](CCC3=C4C(=O)C[C@H]([C@H](C)CCCC(C)C)[C@@]4(C)CC[C@@H]32)C1 [3β-hexadecanoyloxy-5α-cholest-8(14)-en-15-one] | – | – | – | – | difference of liver weights from triolein-treated rats (in words) [1]: differed; liver weight (mean, S.E.M.) [1]: 11.4 g; liver weight as percentage of total body weight (mean, S.E.M.) [1]: 4.53%; Serum Cholesterol (Mean ± S.E.M.) ([2]; day 0 (initial)): 91.6 ± 2.6 mg per 100 ml; Serum Cholesterol (Mean ± S.E.M.) ([2]; day 3): 74.9 ± 3.9 mg per 100 ml; Serum Cholesterol (Mean ± S.E.M.) ([2]; day 6): 75.8 ± 5.0 mg per 100 ml; Serum Cholesterol (Mean ± S.E.M.) ([2]; day 9): 77.9 ± 5.9 mg per 100 ml; Serum Cholesterol (Mean ± S.E.M.) ([2]; day 12): 61.4 ± 3.9 mg per 100 ml; decrease in serum cholesterol levels (in words) ([2]; 5 mg s.c. once a day, after 3, 6, 9, 12 days vs same rats before, after 12 days vs triolein): significant decreases in serum cholesterol levels; % Reduction of serum cholesterol (Mean ± S.E.M.) ([2]; 5 mg s.c. once a day, day 3): 18.2 ± 3.3%; % Reduction of serum cholesterol (Mean ± S.E.M.) ([2]; 5 mg s.c. once a day, day 6): 15.7 ± 4.4%; % Reduction of serum cholesterol (Mean ± S.E.M.) ([2]; 5 mg s.c. once a day, day 9): 14.5 ± 2.9%; % Reduction of serum cholesterol (Mean ± S.E.M.) ([2]; 5 mg s.c. once a day, day 12): 33.2 ± 2.7%; average percentage weight gain (mean±S.E.M.) ([3]; 5 mg s.c. once a day, total experimental period): 40.5±4.6%; differences in growth versus vehicle-treated rats (in words) ([3]; daily s.c.): no significant differences in the growth; IC50 ([4]; L cell cultures): > 16000 nM
CO[C@H]1CC[C@@]2(C)[C@@H](CC=C3[C@@H]2CC[C@]2(C)[C@@H]([C@H](C)CCCC(C)C)C[C@H](O)[C@@]32C)C1 [3β-methoxy-14α-methyl-5α-cholest-7-en-15α-ol] | 1.9 µM | 1.6 µM | 3000 nM | 300 nM | –
CO[C@H]1CC[C@@]2(C)[C@@H](CC=C3[C@@H]2CC[C@]2(C)[C@@H]([C@H](C)CCCC(C)C)C[C@@H](O)[C@@]32C)C1 [3β-methoxy-14α-methyl-5α-cholest-7-en-15β-ol] | 3.5 µM | 3.5 µM | 3700 nM | 1400 nM | –
CC(C)CCC[C@@H](C)[C@H]1C[C@H](O)[C@@H]2C3=CC[C@H]4C[C@@H](O)CC[C@]4(C)[C@H]3CC[C@]12C [5α,14β-Cholest-7-en-3β,15α-diol, 5α,14β-cholest-7-en-3β,15α-diol] | 7.5 µM | 12.5 µM | 6700 nM | 3200 nM | –
CC(C)CCC[C@@H](C)[C@H]1C[C@@H](O)[C@@H]2C3=CC[C@H]4C[C@@H](O)CC[C@]4(C)[C@H]3CC[C@]12C [5α,14β-Cholest-7-en-3β,15β-diol, 5α,14β-cholest-7-en-3β,15β-diol] | 2.5 µM | 6 µM | 4500 nM | 1000 nM | –
CC(C)CCC[C@@H](C)[C@H]1C[C@@H](O)C2=C3CC[C@H]4C[C@@H](O)CC[C@]4(C)[C@H]3CC[C@@]21C [5α-Cholest-8(14)-en-3β,15β-diol] | 10.3 µM | 16.1 µM | 2500 nM | 1800 nM | –
CC(C)CCC[C@@H](C)[C@H]1CC(O)C2=C3C(O)C[C@H]4C[C@@H](O)CC[C@]4(C)[C@H]3CC[C@@]21C (stereo partly drawn) [5α-cholest-8(14)-en-3β,7ε,15ε-triol] | – | 18 µM | 1900 nM | – | IC50 ([5]; primary cultures of liver cells): 4.8 µM; IC50 ([4]; L cell cultures): 5000 nM
CC[C@@]12C(=O)C[C@H]([C@H](C)CCCC(C)C)[C@@]1(C)CC[C@H]1C2=CC[C@H]2C[C@@H](O)CC[C@@]21C [14α-Ethyl-5α-cholest-7-en-3β-ol-15-one, 14α-ethyl-5α-cholest-7-en-3β-ol-15-one] | 2.1 µM | 2.1 µM | 1900 nM | 300 nM | –
CC(C)CCC[C@@H](C)[C@H]1C[C@H](O)[C@@]2(C)C3=CC[C@H]4C[C@@H](O)CC[C@]4(C)[C@H]3CC[C@]12C [14α-Methyl-5α-cholest-7-en-3β,15α-diol] | 1.8 µM | 2 µM | 300 nM | 300 nM | –
CC(C)CCC[C@@H](C)[C@H]1C[C@@H](O)[C@@]2(C)C3=CC[C@H]4C[C@@H](O)CC[C@]4(C)[C@H]3CC[C@]12C [14α-Methyl-5α-cholest-7-en-3β,15β-diol] | – | 4.3 µM | 1200 nM | 500 nM | –
CC(C)CCC[C@@H](C)[C@H]1CC(=O)[C@@]2(C)C3=CC[C@H]4C[C@@H](O)CC[C@]4(C)[C@H]3CC[C@]12C [14α-Methyl-5α-cholest-7-en-3β-ol-15-one, 14α-methyl-5α-cholest-7-en-3β-ol-15-one] | 4.5 µM | 2.8 µM | 300 nM | 300 nM | –
CC(C)CCC(O)[C@@H](C)[C@H]1CC[C@H]2[C@@H]3CC=C4C[C@@H](O)CC[C@]4(C)[C@H]3CC[C@]12C (stereo partly drawn) [Cholest-5-en-3β,22α-diol] | – | – | – | – | IC50 [8]: 3700 nM; IC50 [9]: 6 µM
CC(C)CCC(=O)[C@@H](C)[C@H]1CC[C@H]2[C@@H]3CC=C4C[C@@H](O)CC[C@]4(C)[C@H]3CC[C@]12C [Cholest-5-en-3β-ol-22-one] | – | – | – | – | IC50 [8]: 1700 nM; IC50 [9]: 37 µM
CC(C)CCC[C@@H](C)[C@H]1CC[C@H]2[C@@H]3CC=C4C[C@@H](O)CC[C@]4(C)[C@H]3CC[C@]12C [Cholesterol] | – | – | – | – | IC50 [9]: > 5200 µM; activity in the liver cell culture system (in words) [9]: inactive

From US4202891A, “15-Oxygenated sterol compounds and the use of such compounds to inhibit the biosynthesis of sterols” (priority 1977, dated 1980)
